Experimental data published in PMC10350927 (Journal of Medicinal Chemistry, 2023).
Where a chain is given by its changes, count along the chain named.

Columns and labels:
[1] = target: T1, mSUCNR1-N18^1.31E/K269^7.32N (Mus musculus, UniProt Q99MT6, K269N/N18E); experiment: G protein activation BRET assay, mSUCNR1-N18E/K269N; assay type: cell-based; settings: against an EC80 concentration of succinate
T1 construct: expressed in transfected cells; host or cells: HEK-293T
T1 sequence (Q99MT6 1-317 N18E/K269N): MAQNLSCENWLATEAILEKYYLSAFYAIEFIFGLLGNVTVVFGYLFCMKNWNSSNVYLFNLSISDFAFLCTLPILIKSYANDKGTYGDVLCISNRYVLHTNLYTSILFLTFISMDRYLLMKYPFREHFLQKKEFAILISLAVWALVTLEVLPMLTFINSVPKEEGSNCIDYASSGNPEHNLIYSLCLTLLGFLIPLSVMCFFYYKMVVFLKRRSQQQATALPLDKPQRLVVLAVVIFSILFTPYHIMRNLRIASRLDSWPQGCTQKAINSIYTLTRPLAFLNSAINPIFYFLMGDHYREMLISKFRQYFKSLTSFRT
Procedure: G protein activation assays were carried out using the open-source TRUPATH platform previously described.[36]

hmSUCNR1 [2] = target: T2, hmSUCNR1 (Mus musculus, UniProt Q99MT6, G84W/K269N/N18E); experiment: BRET competition binding using 22 as tracer, hmSUCNR1
T2 sequence (Q99MT6 1-317 N18E/G84W/K269N): T1 sequence (Q99MT6 1-317 N18E/K269N) with G84W

hSUCNR1 [3] = target: T3, hSUCNR1 (Homo sapiens, UniProt Q9BXA5); experiment: BRET competition binding using 46 as tracer, hSUCNR1; settings: […] 46, Kd = 310 nM
T3 sequence (Q9BXA5 1-334): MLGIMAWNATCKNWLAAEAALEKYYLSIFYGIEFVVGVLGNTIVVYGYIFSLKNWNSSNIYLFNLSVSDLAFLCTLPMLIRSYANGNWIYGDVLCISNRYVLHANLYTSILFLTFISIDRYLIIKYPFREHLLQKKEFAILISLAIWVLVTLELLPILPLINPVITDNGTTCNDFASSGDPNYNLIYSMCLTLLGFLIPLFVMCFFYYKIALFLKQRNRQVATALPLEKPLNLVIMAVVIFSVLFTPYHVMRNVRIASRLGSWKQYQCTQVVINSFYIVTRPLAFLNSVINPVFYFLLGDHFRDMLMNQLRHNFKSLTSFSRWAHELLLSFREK

mSUCNR1 [4] = target: T4, mSUCNR1 (Mus musculus, UniProt Q99MT6); experiment: BRET competition binding using 22 as tracer, mSUCNR1; settings: 1 μM 22, Kd = […]; highest unlabeled ligand 30 μΜ
T4 sequence (Q99MT6 1-317): T1 sequence (Q99MT6 1-317 N18E/K269N) with E18N, N269K

hmSUCNR1 [5] = target: T2, hmSUCNR1; experiment: BRET competition binding using 46 as tracer, hmSUCNR1
hSUCNR1 [6] = target: T3, hSUCNR1; experiment: BRET competition binding using 22 as tracer, hSUCNR1; settings: 3 μM 22, Kd = 990 nM; mean ± SEM, three experiments
[7] = target: T5, hmSUCNR1 (N18^1.31E, K269^7.32N, and G84^EL1W) (Mus musculus, UniProt Q99MT6, G84W/K269N/N18E); experiment: cAMP assay, inhibition of succinate response at hmSUCNR1; assay type: cell-based; settings: read-out: hmSUCNR1 cAMP pIC50 (converted)
T5 construct: mGlu5 glutamate receptor signal peptide (N); expressed in transfected cells; the methods describe Flp-In T-REx 293
T5 sequence (Q99MT6 1-317 N18E/G84W/K269N): T1 sequence (Q99MT6 1-317 N18E/K269N) with G84W

[8] = target: T6, mSUCNR1 construct containing N18^1.31E, K269^7.32N, and G84^EL1W (Mus musculus, UniProt Q99MT6, G84W/K269N/N18E); experiment: G protein activation BRET assay, mSUCNR1-N18E/G84W/K269N; assay type: cell-based
T6 construct: expressed in transfected cells; host or cells: HEK-293T
T6 sequence (Q99MT6 1-317 N18E/G84W/K269N): T1 sequence (Q99MT6 1-317 N18E/K269N) with G84W
Procedure: G protein activation assays were carried out using the open-source TRUPATH platform previously described.[36] HEK-293T cells were transfected with Gαi1-Rluc8, Gγ8-GFP^2, Gβ3 and either human, mouse, mouse-N18E/K269N, or mouse-N18E/G84W/K269N SUCNR1 in a 1:1:1:1 plasmid mass ratio using polyethyleneimine.

hSUCNR1 [9] = target: T3, hSUCNR1; experiment: cAMP assay, inhibition of succinate response at hSUCNR1; assay type: cell-based; parameters: expressed in transfected cells; host or cells: Flp-In T-REx 293; settings: inhibition of […] succinate response; mean ± SEM
mSUCNR1 [10] = target: T4, mSUCNR1; experiment: cAMP assay, agonist potency at mSUCNR1; assay type: cell-based; parameters: expressed in transfected cells; host or cells: Flp-In T-REx 293; settings: Flp-In T-REx 293 cells; for cAMP mSUCNR1 pEC50: mean ± SEM, minimum three independent experiments
hSUCNR1 [11] = target: T3, hSUCNR1; experiment: cAMP assay, agonist potency at hSUCNR1; assay type: cell-based; parameters: expressed in transfected cells; host or cells: Flp-In T-REx 293; settings: Flp-In T-REx 293 cells, mean ± SEM, minimum three independent experiments
mSUCNR1 [12] = target: T4, mSUCNR1; settings: transiently transfected HEK-293T cells
Nluc-mSUCNR1 = target: T7, Nluc-mSUCNR1 (Mus musculus, UniProt Q99MT6); experiment: cAMP assay, agonist potency at Nluc-mSUCNR1; settings: N-terminally Nluc-tagged receptor
T7 sequence (Q99MT6 1-317): T1 sequence (Q99MT6 1-317 N18E/K269N) with E18N, N269K

| Structure (SMILES) | antagonism against mSUCNR1-N18^1.31E/K269^7.32N [1] | Ki (hmSUCNR1 [2]) | Competion binding using 46 hSUCNR1 pKi (hSUCNR1 [3]) | Competion binding using 22 mSUCNR1 pKi (mSUCNR1 [4]) | Ki (hmSUCNR1 [5]) | Competion binding using 22 hSUCNR1 pKi (hSUCNR1 [6]) | IC50 [7] | antagonism at mSUCNR1 N18^1.31E, K269^7.32N, G84^EL1W mutant ([8]; against an EC80 concentration of succinate) | cAMP hSUCNR1 pIC50 (hSUCNR1 [9]) | Emax (mSUCNR1 [10]) | cAMP mSUCNR1 pEC50 (mSUCNR1 [10]) | cAMP mSUCNR1 pEC50 (mSUCNR1 [10]; listed as succinate) | cAMP hSUCNR1 pEC50 (hSUCNR1 [11]) | EC50 (hSUCNR1 [11]; read-out: cAMP hSUCNR1 pEC50 (converted)) | G protein activation pEC50 at mSUCNR1 (mSUCNR1 [12]) | G protein activation pEC50 at mSUCNR1 N18^1.31E, K269^7.32N, G84^EL1W ([8]; transiently transfected HEK-293T cells) | Nluc-mSUCNR1 cAMP pEC50 (Nluc-mSUCNR1) |
| --- | --- | --- | --- | --- | --- | --- | --- | --- | --- | --- | --- | --- | --- | --- | --- | --- | --- |
| CN1CCN(Cc2ccc(-c3cccc(C(=O)Nc4ccccc4CC(=O)O)c3)cc2)CC1 [Compound 1, 4-((3′-((2-(Carboxymethyl)phenyl)carbamoyl)-[1,1′-biphenyl]-4-yl)methyl)-1-methylpiperazin-1-ium 2,2,2-trifluoroacetate] | no measurable antagonism | 0.0501 µM | 7.1 ± 0.1 | 5.1 ± 0.0 | 0.0631 µM | 7.4 ± 0.1 | 0.0794 µM | a level of antagonism similar to that with hSUCNR1 | 7.07 ± 0.21 | – | – | – | – | – | – | – | – |
| O=C(O)CCC(=O)O [Succinate] | – | 1000 µM | 3.2 ± 0.1 | 3.3 ± 0.1 | 631 µM | 3.7 ± 0.1 | – | – | – | 100% | 5.02 ± 0.10 | ~5.0 | 5.04 ± 0.02 | ~10 µM | 5.29 ± 0.12 | 4.28 ± 0.09 | 5.69 ± 0.11 |
